Experimental data published in US10364247B2, “Preparation and use of novel protein kinase inhibitors” (Ruijin Hospital Affiliated to Shanghai Jiao Tong University …, priority 2015, dated 2019).

Legend:
Format in all cases: cell-based, murine
BaF3-BCR/ABL-T315I = molecular target: T1, BaF3-BCR/ABL-T315I (Homo sapiens, UniProt P00519, T315I, cells depend on it); experiment: Antiproliferative activity, kinase-dependent Ba/F3 cells (MTT/MTS); settings: 48 hours, cell viability, read-out: BCR/ABL T315I IC50
T1 construct: fused on or other part: P11274 (Breakpoint cluster region protein)
Protocol: (§1) Following up on the kinome data, the ability of compounds disclosed in the present invention to inhibit proliferation of cells that are dependent on selected protein kinases was tested. […] In addition, compounds were assayed to measure their capacity to inhibit TIE1, LYN, EML4-ALK, INSR and HCK kinases.
(§2) The murine cell line used is the BaF/3 cell line transformed with BCR/ABL cDNA (BaF/3-p210) or BCR/ABL-T315I mutant (Ba/F3-p210-T315I). These cells are maintained in RPMI/10% fetal calf serum (RPMI/FCS) supplemented with penicillin 50 μg/mL, streptomycin 50 μg/mL and L-glutamine […]. Untransformed BaF/3 cells (Wt-BaF/3) are similarly maintained with the addition of 15% of WEHI conditioned medium as a source of IL3.
(§3) Cells were seeded at a density of 20,000 cells/well into 96-well plates.
(§4) The background control wells to which media with no cells added and the vehicle control wells were included on each plate in triplicate. Cell viability was determined using MTT (Sigma, St. Louis, Mo., USA) and MTS (Promega, Madison, Wis., USA), according to the manufacturer's instructions. Results were analyzed using GraphPad Prism 5.0 (GraphPad Software, San Diego, Calif.) and IC50 values were calculated from cell viability dose-response curves and defined as the concentration of compound needed to reduce cell viability to 50% of a vehicle control (DMSO) (Table 3).

BaF3-BCR/ABL = molecular target: T2, BaF3-BCR/ABL (Homo sapiens, UniProt P00519); experiment: as above; settings: 48 hours, cell viability, read-out: BCR/ABL IC50
T2 construct: fused on or other part: P11274 (Breakpoint cluster region protein)
Protocol: as §1, §2, §3, §4

BaF3-TEL-LYN = molecular target: T3, BaF3-TEL-LYN (Homo sapiens, UniProt P07948); experiment: as above; settings: 48 hours, cell viability, read-out: tel-LYN IC50
T3 construct: fused on or other part: P41212 (Transcription factor ETV6)
Protocol: as §1, §2, §3, §4
(§5) Cell proliferation assays of compounds of the invention against TIE1, LYN, EML4-ALK, INSR and Hck were conducted using identical methods as described above for BCR/ABL, except that BaF3-TEL-TIE1, BaF3-TEL-LYN, BaF3-EML4-ALK, BaF3-TEL-INSR, and BaF3-TEL-HCK are used instead of BaF3-BCR/ABL (Table 3 and 4).

BaF3-TEL-HCK = molecular target: T4, BaF3-TEL-HCK (Homo sapiens, UniProt P08631); experiment: as above; settings: 48 hours, cell viability, read-out: Tel-HCK IC50
T4 construct: fused on or other part: P41212 (Transcription factor ETV6)
Protocol: as §1, §2, §3, §4, §5

BaF3-TEL-TIE1 = molecular target: T5, BaF3-TEL-TIE1 (Homo sapiens, UniProt P35590); experiment: as above; settings: 48 hours, cell viability, read-out: tel-TIE1 IC50
T5 construct: fused on or other part: P41212 (Transcription factor ETV6)
Protocol: as §1, §2, §3, §4, §5

BaF3-EML4-ALK = molecular target: T6, BaF3-EML4-ALK (Homo sapiens, UniProt Q9UM73); experiment: as above; settings: 48 hours, cell viability, read-out: EML4-ALK IC50
T6 construct: fused on or other part: Q9HC35 (Echinoderm microtubule-associated protein-like 4)
Protocol: as §1, §2, §3, §4, §5

BaF3-TEL-INSR = molecular target: T7, BaF3-TEL-INSR (Homo sapiens, UniProt P06213); experiment: as above; settings: 48 hours, cell viability, read-out: Tel-INSR IC50
T7 construct: fused on or other part: P41212 (Transcription factor ETV6)
Protocol: as §1, §2, §3, §4, §5

BaF3-NRASD12 = experiment: Oncogenic RAS dependent cell proliferation (CellTiter Glo); settings: Mus musculus, BaF3-NRASD12 cells, 48 hours, read-out: NRas-BaF3 IC50
Protocol: (§6) The BaF/3 cell line transformed with oncogenic NRAS or KRAS (BaF/3-NRASD12 or BaF/3-KRASD12) and the parental BaF/3 cells were used to measure the abilities of compounds of the invention to suppress RAS transformation (Table 5). Cells were seeded at a density of 5000 cells/well into 96-well plates. […] The background control wells to which media with no cells added and the vehicle control wells were included on each plate in triplicate. Cell viability was determined using CellTiter Glo Assay (Promega) according to manufacture's instruction with a minor modification of diluting 1 part CellTiter Glo reagent to 4 parts phosphate buffered saline (PBS) before use. The luminescence value was read out by an Envision (PerkinElmer).

BaF3-KRASD12 = experiment: as above; settings: Mus musculus, BaF3-KRASD12 cells, 48 hours, read-out: KRas-BaF3 IC50
Protocol: as §6

Wt-BaF3 = experiment: Parental Ba/F3 cell proliferation (CellTiter Glo); settings: Mus musculus, parental BaF/3 cells, 48 hours
Protocol: as §2, §6

T6 sequence (Q9UM73 whole entry, change not shown, the tested form may be a part): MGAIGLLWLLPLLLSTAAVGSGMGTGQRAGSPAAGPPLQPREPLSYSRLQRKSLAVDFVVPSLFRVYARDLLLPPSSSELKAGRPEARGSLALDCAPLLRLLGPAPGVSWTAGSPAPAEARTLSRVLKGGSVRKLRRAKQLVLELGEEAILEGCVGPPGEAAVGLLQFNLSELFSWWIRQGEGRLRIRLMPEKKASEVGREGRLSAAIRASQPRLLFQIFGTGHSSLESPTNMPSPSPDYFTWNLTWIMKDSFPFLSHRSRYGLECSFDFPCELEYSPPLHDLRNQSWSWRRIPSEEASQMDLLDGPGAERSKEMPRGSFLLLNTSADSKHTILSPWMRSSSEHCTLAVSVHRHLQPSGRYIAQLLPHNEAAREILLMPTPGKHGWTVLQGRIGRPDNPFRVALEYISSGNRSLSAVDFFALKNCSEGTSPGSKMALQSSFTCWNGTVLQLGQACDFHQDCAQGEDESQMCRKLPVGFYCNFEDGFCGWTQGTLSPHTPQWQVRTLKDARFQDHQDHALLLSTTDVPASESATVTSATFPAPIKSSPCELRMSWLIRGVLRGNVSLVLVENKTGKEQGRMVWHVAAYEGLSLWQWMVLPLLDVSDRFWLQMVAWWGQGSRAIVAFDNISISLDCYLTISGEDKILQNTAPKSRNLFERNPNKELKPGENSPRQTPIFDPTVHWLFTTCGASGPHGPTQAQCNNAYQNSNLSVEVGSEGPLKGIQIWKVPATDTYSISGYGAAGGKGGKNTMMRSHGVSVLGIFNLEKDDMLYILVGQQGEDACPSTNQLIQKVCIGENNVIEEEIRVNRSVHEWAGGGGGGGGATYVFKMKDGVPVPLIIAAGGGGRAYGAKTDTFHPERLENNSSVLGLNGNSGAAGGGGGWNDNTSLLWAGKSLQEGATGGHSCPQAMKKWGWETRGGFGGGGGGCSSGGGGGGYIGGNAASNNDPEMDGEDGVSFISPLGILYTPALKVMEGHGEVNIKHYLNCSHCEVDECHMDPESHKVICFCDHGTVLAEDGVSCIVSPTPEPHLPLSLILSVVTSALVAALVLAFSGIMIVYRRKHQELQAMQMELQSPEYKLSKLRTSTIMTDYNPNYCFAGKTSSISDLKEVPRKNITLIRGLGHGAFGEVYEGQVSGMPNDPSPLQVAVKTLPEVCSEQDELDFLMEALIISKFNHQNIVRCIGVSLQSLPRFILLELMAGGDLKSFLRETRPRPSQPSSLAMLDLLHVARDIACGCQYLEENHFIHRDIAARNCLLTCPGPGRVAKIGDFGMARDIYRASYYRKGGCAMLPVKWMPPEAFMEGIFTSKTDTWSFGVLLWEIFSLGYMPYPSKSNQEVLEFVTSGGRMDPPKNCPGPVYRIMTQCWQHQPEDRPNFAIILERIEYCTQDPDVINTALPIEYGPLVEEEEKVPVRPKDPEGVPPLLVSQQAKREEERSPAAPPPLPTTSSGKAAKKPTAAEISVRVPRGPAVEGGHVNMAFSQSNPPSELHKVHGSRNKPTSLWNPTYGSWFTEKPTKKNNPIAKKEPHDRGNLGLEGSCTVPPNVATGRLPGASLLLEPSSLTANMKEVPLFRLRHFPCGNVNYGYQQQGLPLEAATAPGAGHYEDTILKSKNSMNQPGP
T5 sequence (P35590 whole entry, change not shown, the tested form may be a part): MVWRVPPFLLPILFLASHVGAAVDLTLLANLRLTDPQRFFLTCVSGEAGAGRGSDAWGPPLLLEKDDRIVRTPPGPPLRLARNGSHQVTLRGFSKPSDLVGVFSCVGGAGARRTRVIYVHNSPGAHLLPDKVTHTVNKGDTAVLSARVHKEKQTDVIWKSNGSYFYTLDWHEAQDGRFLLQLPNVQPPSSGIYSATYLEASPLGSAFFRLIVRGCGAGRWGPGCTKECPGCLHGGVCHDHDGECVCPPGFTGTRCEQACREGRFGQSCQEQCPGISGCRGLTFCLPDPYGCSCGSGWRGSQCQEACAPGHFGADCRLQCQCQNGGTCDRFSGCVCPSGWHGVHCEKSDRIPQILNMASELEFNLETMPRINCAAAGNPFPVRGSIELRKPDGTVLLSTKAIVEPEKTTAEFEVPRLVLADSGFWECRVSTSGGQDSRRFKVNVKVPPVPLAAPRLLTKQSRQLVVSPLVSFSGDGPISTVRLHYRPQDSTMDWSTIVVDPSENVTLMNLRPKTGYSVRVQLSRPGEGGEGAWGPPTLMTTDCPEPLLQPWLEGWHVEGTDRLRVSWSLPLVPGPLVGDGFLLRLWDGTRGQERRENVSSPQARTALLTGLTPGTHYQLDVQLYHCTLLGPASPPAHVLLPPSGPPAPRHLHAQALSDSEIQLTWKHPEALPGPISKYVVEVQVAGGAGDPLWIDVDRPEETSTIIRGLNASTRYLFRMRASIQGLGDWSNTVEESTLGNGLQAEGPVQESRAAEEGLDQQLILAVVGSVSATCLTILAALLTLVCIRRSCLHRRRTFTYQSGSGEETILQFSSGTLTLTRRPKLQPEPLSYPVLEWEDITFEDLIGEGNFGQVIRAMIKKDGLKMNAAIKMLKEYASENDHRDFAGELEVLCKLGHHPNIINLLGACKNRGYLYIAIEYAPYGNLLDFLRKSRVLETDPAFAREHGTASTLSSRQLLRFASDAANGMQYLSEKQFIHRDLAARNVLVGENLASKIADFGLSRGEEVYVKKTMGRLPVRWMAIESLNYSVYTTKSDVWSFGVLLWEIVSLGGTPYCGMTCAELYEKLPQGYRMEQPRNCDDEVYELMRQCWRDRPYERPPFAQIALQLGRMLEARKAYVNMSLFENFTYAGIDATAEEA
T3 sequence (P07948 whole entry, change not shown, the tested form may be a part): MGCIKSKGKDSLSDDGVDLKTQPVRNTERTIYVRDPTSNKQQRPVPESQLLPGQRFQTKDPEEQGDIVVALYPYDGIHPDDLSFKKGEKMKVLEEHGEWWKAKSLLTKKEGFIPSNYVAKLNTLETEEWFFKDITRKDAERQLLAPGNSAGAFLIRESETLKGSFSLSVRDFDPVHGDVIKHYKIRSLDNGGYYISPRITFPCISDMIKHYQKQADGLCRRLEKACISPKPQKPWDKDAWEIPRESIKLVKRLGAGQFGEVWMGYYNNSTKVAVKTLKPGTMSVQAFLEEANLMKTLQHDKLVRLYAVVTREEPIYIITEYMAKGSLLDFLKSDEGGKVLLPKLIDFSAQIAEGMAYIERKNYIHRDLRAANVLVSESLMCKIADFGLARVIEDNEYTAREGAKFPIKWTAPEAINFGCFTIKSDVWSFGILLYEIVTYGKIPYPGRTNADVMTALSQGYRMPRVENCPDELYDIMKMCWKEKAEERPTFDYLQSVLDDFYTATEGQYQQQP
T4 sequence (P08631 whole entry, change not shown, the tested form may be a part): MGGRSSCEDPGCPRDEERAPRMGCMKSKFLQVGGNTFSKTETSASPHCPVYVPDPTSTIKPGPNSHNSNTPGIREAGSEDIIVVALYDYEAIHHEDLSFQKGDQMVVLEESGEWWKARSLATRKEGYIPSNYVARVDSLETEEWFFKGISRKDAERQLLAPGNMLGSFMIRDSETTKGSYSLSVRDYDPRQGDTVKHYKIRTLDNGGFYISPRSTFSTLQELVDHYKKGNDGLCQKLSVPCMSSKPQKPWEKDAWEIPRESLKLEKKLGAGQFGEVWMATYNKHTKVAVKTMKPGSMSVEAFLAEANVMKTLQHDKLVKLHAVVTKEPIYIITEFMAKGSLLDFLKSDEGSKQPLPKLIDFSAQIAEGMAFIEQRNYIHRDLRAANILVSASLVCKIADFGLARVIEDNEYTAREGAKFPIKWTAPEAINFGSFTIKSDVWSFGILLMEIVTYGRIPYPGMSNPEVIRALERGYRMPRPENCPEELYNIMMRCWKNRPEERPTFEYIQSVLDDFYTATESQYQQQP

IC50 (BaF3-NRASD12) [nM]	IC50 (BaF3-KRASD12) [nM]	SMILES	GI50 (BaF3-BCR/ABL-T315I) [nM]	GI50 (BaF3-BCR/ABL) [nM]	GI50 (BaF3-TEL-LYN) [nM]	GI50 (BaF3-TEL-HCK) [nM]	GI50 (BaF3-TEL-TIE1) [nM]	GI50 (BaF3-EML4-ALK) [nM]	GI50 (BaF3-TEL-INSR) [nM]	IC50 (Wt-BaF3) [nM]
4410	4310	COc1cc(C(=O)N2CCN(C)CC2)ccc1Nc1ncc2c(n1)N(C)CN(c1cc(NC(=O)c3cccc(C(F)(F)F)c3)ccc1C)C2 [IA-16, N-(3-(7-((2-methoxy-4-(4-methylpiperazine-1-carbonyl)phenyl)amino)-1-methyl-1,4-dihydropyrimido[4,5-d]pyrimidin-3(2H)-yl)-4-methylphenyl)-3-(trifluoromethyl)benzamide]	4370	1710	2000	2880	1580	1540	3960	4420
1500	2110	CCN1CN(c2cc(NC(=O)c3cccc(C(F)(F)F)c3)ccc2C)Cc2cnc(Nc3ccc(C)nc3)nc21 [IB-1, N-(3-(1-ethyl-7-((6-methylpyridin-3-yl)amino)-1,4-dihydropyrimido[4,5-d]pyrimidin-3(2H)-yl)-4-methylphenyl)-3-(trifluoromethyl)benzamide]	881	5.96	1260	327	1290	2640	3230	4840
1400	1780	Cc1ccc(Nc2ncc3c(n2)N(C2CC2)CN(c2cc(NC(=O)c4cccc(C(F)(F)F)c4)ccc2C)C3)cn1 [IB-2, N-(3-(1-cyclopropyl-7-((6-methylpyridin-3-yl)amino)-1,4-dihydropyrimido[4,5-d]pyrimidin-3(2H)-yl)-4-methylphenyl)-3-(trifluoromethyl)benzamide]	2900	53.8	1200	2090	1090	3130	2160	6030
